The text below walks through data of ChEMBL document CHEMBL3046779, “Synthesis and anti-juvenile hormone activity of ethyl 4-[(6-substituted 2,2-dimethyl-2H-chromen-7-yl)methoxy]benzoates” (2010).

Common to all, as to assay type: functional
Experiment [1] has as its system Bombyx mori. Description: Antijuvenile hormone activity against third-instar larvae of Bombyx mori assessed as precocious metamorphosis-inducing activity at 10 ug/larva.
For experiment [2], the system named is Bombyx mori. In words: Antijuvenile hormone activity against third-instar larvae of Bombyx mori assessed as precocious metamorphosis-inducing activity at 1 ug/larva.
For experiment [3], the system named is Bombyx mori. In words: Antijuvenile hormone activity against third-instar larvae of Bombyx mori assessed as precocious metamorphosis-inducing activity at 40 ug/larva.
The test system of experiment [4] is Bombyx mori. Description: Antijuvenile hormone activity against allatectomized third-instar larvae of Bombyx mori assessed as number of larvae transformed into larval pupa intermediate at 40 ug/larva (reference value: 0).
For experiment [5], the system named is Bombyx mori. Description: Antijuvenile hormone activity against allatectomized third-instar larvae of Bombyx mori assessed as number of larvae transformed into precocious pupa at 1 ug/larva (reference value: 10).
Experiment [6] has as its system Bombyx mori. Description: Antijuvenile hormone activity against allatectomized third-instar larvae of Bombyx mori assessed as number of larvae transformed into larval pupa intermediate at 1 ug/larva (reference value: 0).
Experiment [7] concerns Bombyx mori. Description: Antijuvenile hormone activity against allatectomized third-instar larvae of Bombyx mori assessed as number of larvae transformed into fifth instar larvae at 1 ug/larva (reference value: 0).
In experiment [8] the test system is Bombyx mori. In words: Antijuvenile hormone activity against allatectomized third-instar larvae of Bombyx mori assessed as number of larvae transformed into fifth-instar larvae at 40 ug/larva (reference value: 0).
In experiment [9] the test system is Bombyx mori. In words: Antijuvenile hormone activity against allatectomized third-instar larvae of Bombyx mori assessed as number of larvae transformed into precocious pupa at 40 ug/larva (reference value: 10).

Structures are written as SMILES.

As for `CCOC(=O)c1ccc(OCc2cc(OC)c(OC)cc2OC)cc1`, the Activity in the experiment with Bombyx mori [1], with Bombyx mori [2] and in the experiment on Bombyx mori [3] was 0% in each case.

Regarding `CCOC(=O)c1ccc(OCc2cc3c(cc2OC)CCCC3)cc1`, the Activity in the experiment with Bombyx mori [1] was found to be 10%; in the experiment with Bombyx mori [2], 0%; with Bombyx mori [3], 30%.

For the compound `CCOC(=O)c1ccc(OCc2cc3c(cc2OC)C=CC(C)(C)O3)cc1`, the Activity with Bombyx mori [1] is reported as 95%; in the experiment on Bombyx mori [2], 75%; in the experiment on Bombyx mori [4], 0; in the experiment on Bombyx mori [5], 2; with Bombyx mori [6], 6; in the experiment on Bombyx mori [7] it was 2. For the same compound, the figures for the Activity with Bombyx mori [3], with Bombyx mori [8] and in the experiment on Bombyx mori [9] were 100%, 10 and 0, respectively.

Consider `CCOC(=O)c1ccc(OCc2cc3c(cc2OC)CCC(C)(C)O3)cc1`, for which the Activity with Bombyx mori [1] was 94%; in the experiment on Bombyx mori [2], 46%; with Bombyx mori [4], 0; in the experiment on Bombyx mori [3] it was 87%; with Bombyx mori [8], 10; in the experiment with Bombyx mori [9] it was 0.

Take `CCOC(=O)c1ccc(OCc2ccc3c(c2)OC(C)(C)C=C3)cc1`: the Activity in the experiment with Bombyx mori [1] is listed as 20%; in the experiment with Bombyx mori [2], 0%; in the experiment on Bombyx mori [3] it was 65%.

As to `COC(C)(C)CCC[C@H](C)C/C=C/C(C)=C/C(=O)OC(C)C` [METHOPRENE], the figures for the Activity in the experiment with Bombyx mori [5], in the experiment on Bombyx mori [6] and in the experiment on Bombyx mori [7] were 0, 0 and 10, respectively.

For the compound `CCCOc1cc2c(cc1COc1ccc(C(=O)OCC)cc1)OC(C)(C)C=C2`, the Activity in the experiment on Bombyx mori [1] turned out to be 0%; in the experiment on Bombyx mori [2], 0%; with Bombyx mori [3], 16%.

Regarding `CCOC(=O)c1ccc(OCc2cc3c(cc2OC)OCCO3)cc1`, the values for the Activity in the experiment on Bombyx mori [1], in the experiment with Bombyx mori [2] and in the experiment with Bombyx mori [3] were 58%, 10% and 79%, respectively.

As for `CCOC(=O)c1ccc(OCc2cc3c(cc2OCC)C=CC(C)(C)O3)cc1`, the Activity in the experiment on Bombyx mori [1] amounted to 5%; in the experiment with Bombyx mori [2] it was 0%; in the experiment on Bombyx mori [3], 20%.

As to `CCOC(=O)c1ccc(OCc2cc3c(cc2OCc2ccccc2)C=CC(C)(C)O3)cc1`, the Activity with Bombyx mori [1] is 100%; with Bombyx mori [2], 40%; with Bombyx mori [3], 100%.
